Square brackets hold non-standard residues; d marks the D form. Ends that are not written are not given here.
Assays:
soybean leaves = assay: Translocation of sprayed TAMRA-CPPs into soybean leaves (fluorescence imaging); format: in vivo, Glycine max; conditions: for cell penetrating efficiency: soybean leaves, in general
Procedure: Seeds of soybean (Glycine max) cultivars Enrei, William-82, and Peking, were germinated between germination papers that has been moistened with tap water. Then the seeds with papers were placed in a plastic bag and incubated in a growth chamber under 18 hours light/6 hours dark at 26° C. for three days. One and a quarter tea spoon of Multicoat 4 was mixed with 2 L of autoclaved sand, which was then moistened with tap water. Three days old soybean seedlings were then transplanted into containers filled with moist sand mix and incubated in the same growth chamber. Leaves from 5 weeks old plants were used for experiments.
Soybean leaves are different in both architecture and leaf chemical components. We further examined the translocation efficiency of highly efficient native CPP sequences in soybean leaves. Leaves from 5 weeks old plants were used for the experiment. Solutions containing 1.0 mg/mL of natural TAMRA-CPP; TAMRA-BP100, TAMRA-KH9, TAMRA-R9, and TAMRA-D-R9 were sprayed on soybean leaves of 3 different cultivars (Enrei, Peking, and William-82) and incubated for 30 min, 90 min, and 150 min (FIG. 3A). The fluorescence imaging and image analysis were conducted to determine the translocation efficiency of these CPPs to plant leaves. […] Different soybean cultivars responded differently to the translocation of CPPs to plant cells.
We tried to determine the efficiency of artificial CPPs containing Aib to soybean leaves using spraying. KAibA, KAibK, and KAibG were synthesized and labelled with TAMRA as described in Example 1. The solutions containing 1 mg/mL of these artificial TAMRA-CPPs were sprayed to fully expanded leaves of 5-weeks old soybean cultivar Enrei and the fluorescence imaging was carried out at 30 min, 90 min, and 150 min after spraying. […] However, the average fluorescent intensity in TAMRA-KAibA-treated soybean leaves was lower than that previously achieved by TAMRA-D-R9 (FIG. 3B and C).

Arabidopsis leaf = assay: Translocation of sprayed TAMRA-CPPs into Arabidopsis leaf cells (CLSM fluorescence); format: in vivo, Arabidopsis thaliana; conditions: for cell penetrating efficiency: epidermal cells, TAMRA-labelled CPP 1 mg/L in water, compared with KH9 and R9
From the text: Cell-penetrating peptides (CPPs), also called protein transduction domains, are short peptides that facilitate the transport of cargo molecules through membranes to gain access to the cells. In many cases, CPPs are coupled to cargo molecules through covalent conjugation, forming CPP-cargo complexes. To date, DNA, RNA, nanomaterials and proteins such as antibodies were reported as cargo molecules. Most studies of the complex of CPPs and protein have contributed to the applications in mammalian cells, whereas only very limited studies have focused on plant cells. […] The plant cells are mainly containing cellulose, hemicellulose and pectin. […] BP100 (KKLFKKILKYL—SEQ ID NO: 7) is an amphiphilic peptide and has CPP function. KH9 (KHKHKHKHKHKHKHKHKH—SEQ ID NO: 10), R9 (RRRRRRRRR SEQ ID NO: 8), and D-R9 (rrrrrrrrr, D-form of R9 - SEQ ID NO: 9) are peptides containing both CPP and cationic biomolecule binding functions. BP100(KH)9 ([…]—SEQ ID NO: 11) and BP100CH7 ([…]—SEQ ID NO: 12) are fusion peptides containing CPP and cationic sequences which are designed as stimulus-response peptides and could release the cargo molecules (peptides, protein, RNA, DNA) into the cytoplasm. KAibA(KH)9, K-alpha-aminoisobutyric acid (AibA)-AKHKHKHKHKHKHKHKHKH, and KAibA(D-R9), K-alpha-aminoisobutyric acid (AibA)-Arrrrrrrrr are synthetic peptides and containing both CPP and cationic biomolecule binding functions. KAibA (U.S. Ser. No. 16/832,749) was chemoenzymatically synthesized using the polymerization reaction (ACS Biomater. Sci. Eng. 2020, 6, 6, 3287-3298). TAMRA-CPPs are CPPs that labeled by fluorescent molecule 5-carboxytetramethylrhodamine (TAMRA) at the C-terminal end and were used for optimization of various conditions. For the labelling of CPP with TAMRA, the amino acids in Boc-CPPs were deprotected using tri-fluoroacetic acid (TFA). A solution of tetramethylrhodamine-5-isothiocyanate in dimethyl sulfoxide (DMSO) was added to CPP solutions and kept stirring at 25° C. for 14 h. The solution was centrifuged at maximum speed at 4° C. for 60 minutes and the precipitate was washed with Milli-Q water. After lyophilizing, a pink solid was obtained. Dried precipitate of TAM RA-CPP was re-suspended with Milli-q and the TAMRA-CPP solution was kept at 1.0 mg/mL concentration in −80° C. Plasmid DNA that contains expression cassette of reporter gene such as GUS (SEQ ID NO: 1), GFP (SEQ ID NO: 2), DsRed (SEQ ID NO: 3), and Renilla luciferase (Rluc—SEQ ID NO: 4) was used to detect successful delivery into plant cells. […]
Each TAMRA-CPP was adjusted as concentration at 1 mg/L in water. […] Leaf surface was washed three times with water after 30, 90 and 150 min post spraying, and the intensity of fluorescence was measured by CLSM imaging analysis (FIG. 2A). […]

Substance | cell penetrating efficiency (soybean leaves) | cell penetrating efficiency (Arabidopsis leaf) | cell penetrating effect (soybean leaves; cultivar Peking) | depth of penetration and persistence in tissue (Arabidopsis leaf; Arabidopsis leaf, summary) | penetrating efficiency (Arabidopsis leaf; mesophyll cells)
KKLFKKILKYL (BP100) | higher cell penetrating efficiency | higher cell penetrating efficiency |  |  | 
rrrrrrrrr ([dR][dR][dR][dR][dR][dR][dR][dR][dR]) [D-R9] | higher cell penetrating efficiency | higher cell penetrating efficiency | most efficient cell penetrating effect | able to penetrate deep inside of the tissue and stay longer without degradation | highest penetrating efficiency

Reference: patent US20230323373A1, “SPRAYABLE CELL-PENETRATING PEPTIDES FOR SUBSTANCE DELIVERY IN PLANTS” (BASF Plant Science Company GmbH, priority 2020, published 2023)
